According to US9458113B2 (Boehringer Ingelheim International GmbH, priority 2014, dated 2016):

Experiment: Drug transport across human Caco-2 cells
Format: in vitro ADME
Settings: apparent permeability coefficient, Caco-2 monolayers, pH 7.2, 37° C.; for Papp A→B at 10 µM: apical-to-basal (absorptive), read-out: PEAB; for Papp B→A at 10 µM: basal-to-apical (secretory), read-out: PEBA
From the text: Assay for Determination of Drug Transport Across Human Caco-2 Cells
The assay provides information on the potential of a compound to pass the cell membrane, on the extent of oral absorption as well as on whether the compound is actively transported by uptake and/or efflux transporters. For the measurement of permeability across polarized, confluent human cancer colon carcinoma cells 2 (Caco-2) cell monolayers grown on permeable filter supports are used as the in vitro absorption model.
Apparent permeability coefficients (PE) of the compounds across the Caco-2 monolayers are measured (pH 7.2, 37° C.) in apical-to-basal (AB) (absorptive) and basal-to-apical (BA) (secretory) transport direction. AB permeability (PEAB) represents drug absorption from the intestine into the blood and BA permeability (PEBA) drug secretion from the blood back into the intestine via both passive permeability as well as active transport mechanisms mediated by efflux and uptake transporters that are expressed on the Caco-2 cells. The compounds are assigned to permeability/absorption classes by comparison of the AB permeabilities with the AB permeabilities of reference compounds with known in vitro permeability and oral absorption in the human. Identical or similar permeabilities in both transport directions indicate passive permeation, vectorial permeability points to additional active transport mechanisms. […] Active transport is concentration-dependently saturable.
Caco-2 cells (1-2*10^5 cells/cm^2 area) are seeded on filter inserts (Costar transwell polycarbonate or PET filters, 0.4 μm pore size) and cultured (DMEM) for 10 to 25 days. Compounds are dissolved in appropriate solvent (like DMSO, […] stock solutions). Stock solutions are diluted with HTP-4 buffer (128.13 mM NaCl, 5.36 mM KCl, 1 mM MgSO4, 1.8 mM CaCl2, 4.17 mM NaHCO3, 1.19 mM Na2HPO4x7H2O, 0.41 mM NaH2PO4xH2O, 15 mM HEPES, 20 mM glucose, pH 7.2) to prepare the transport solutions (typically 10 μM compound, final DMSO<=0.5%). The transport solution (TL) is applied to the apical or basolateral donor side for measuring A-B or B-A permeability (3 filter replicates), respectively. The receiver side contains HTP-4 buffer supplemented with 2% BSA. Samples are collected at the start and end of experiment from the donor and at various time intervals for up to 2 hours also from the receiver side for concentration measurement by LC-MS/MS or scintillation counting. Sampled receiver volumes are replaced with fresh receiver solution.
The apparent permeability coefficients (PEAB and PEBA) of selected compounds in the Caco-2 drug transport assay described above are listed in Table 16.

Row | SMILES | Papp A→B at 10 µM [×10⁻⁶ cm/s] | Papp B→A at 10 µM [×10⁻⁶ cm/s]
1 | CN1C(=O)N(c2cccc(C(F)(F)F)c2)C2=C(C(=O)CC2)[C@H]1c1ccc(C#N)cc1CNC(C)(C)C [Example 24, 3-(tert-Butylamino-methyl)-4-[(R)-3-methyl-2,5-dioxo-1-(3-trifluoromethyl-phenyl)-2,3,4,5,6,7-hexahydro-1H-cyclopentapyrimidin-4-yl]-benzonitrile] | 21 | 84
2 | CN1C(=O)N(c2cccc(C(F)(F)F)c2)C2=C(C(=O)CC2)[C@H]1c1ccc(C#N)cc1-c1ccc(=O)n(C)c1 [Example 23, 4-[(R)-3-Methyl-2,5-dioxo-1-(3-trifluoromethyl-phenyl)-2,3,4,5,6,7-hexahydro-1H-cyclopentapyrimidin-4-yl]-3-(1-methyl-6-oxo-1,6-dihydro-pyridin-3-yl)-benzonitrile] | 6.6 | 87
3 | CN1C(=O)N(c2cccc(C(F)(F)F)c2)C2=C(C(=O)CC2)[C@H]1c1ccc(C#N)cc1C(N)=O [Example 2, 5-Cyano-2-[(R)-3-methyl-2,5-dioxo-1-(3-trifluoromethyl-phenyl)-2,3,4,5,6,7-hexahydro-1H-cyclopentapyrimidin-4-yl]-benzamide] | 4.8 | 51
